The text below walks through data of BindingDB's records for doi:10.1016/s0960-894x(02)00302-5 (Wyeth Research, 2002).

This assay addresses Proto-oncogene tyrosine-protein kinase Src (Homo sapiens, UniProt P12931). Kind of assay: Kinase inhibition Assay. The settings on record: pH 7.5; 30 °C. The method, then:
Src kinase activity was measured in an ELISA format. IC50 is the inhibitor concentration which inhibits 50% of kinase activity that catalyzes the transfer of the terminal phosphate from ATP to the substrate.

Proto-oncogene tyrosine-protein kinase Src, sequence (P12931 2-536 limits assumed): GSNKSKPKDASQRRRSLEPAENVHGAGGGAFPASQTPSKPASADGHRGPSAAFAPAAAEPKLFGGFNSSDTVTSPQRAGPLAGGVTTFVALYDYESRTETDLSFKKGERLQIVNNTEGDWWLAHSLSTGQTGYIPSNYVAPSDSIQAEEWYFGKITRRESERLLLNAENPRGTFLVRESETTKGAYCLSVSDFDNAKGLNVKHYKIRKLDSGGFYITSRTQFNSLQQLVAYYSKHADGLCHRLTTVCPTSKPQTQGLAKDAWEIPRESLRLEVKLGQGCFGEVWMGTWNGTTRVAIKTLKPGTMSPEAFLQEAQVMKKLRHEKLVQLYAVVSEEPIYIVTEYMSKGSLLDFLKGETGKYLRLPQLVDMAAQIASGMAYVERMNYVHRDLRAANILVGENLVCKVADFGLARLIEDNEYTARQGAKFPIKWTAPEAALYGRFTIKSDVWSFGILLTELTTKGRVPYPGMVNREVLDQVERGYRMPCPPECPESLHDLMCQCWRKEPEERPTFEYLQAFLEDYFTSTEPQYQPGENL

In turn, `COc1cc(Nc2c(C#N)cnc3cc(-c4ccc(CN5CCCCC5)s4)ccc23)c(Cl)cc1Cl` [4-[(2,4-dichloro-5-methoxyphenyl)amino]-7-[5-(piperidin-1-ylmethyl)thiophen-2-yl]quinoline-3-carbonitrile] yielded an IC50 of 4.2 nM.
Compound `COc1cc(Nc2c(C#N)cnc3cc(-c4ccc(CN5CCSCC5)s4)ccc23)c(Cl)cc1Cl` [4-[(2,4-dichloro-5-methoxyphenyl)amino]-7-[5-(thiomorpholin-4-ylmethyl)thiophen-2-yl]quinoline-3-carbonitrile] came in with an IC50 of 4.4 nM.
Then `COc1cc(Nc2c(C#N)cnc3cc(-c4ccc(CN5CCC(O)CC5)s4)ccc23)c(Cl)cc1Cl` [4-[(2,4-dichloro-5-methoxyphenyl)amino]-7-{5-[(4-hydroxypiperidin-1-yl)methyl]thiophen-2-yl}quinoline-3-carbonitrile], with 2 nM.
